Measured values as given in patent publication US6346543B1, “Use of a taxoid to treat abnormal cell proliferation in the brain” (priority 1998, dated 2002).
Several values for one entry are separate records, joined by “and”; a condition that tells them apart may be missing. Equal entries are not always repeated.

Tests used:
[1] = system: intracranially implanted human glioblastoma SF-295; test: Antitumor activity against intracranially implanted SF-295 glioblastoma in NCr-nu mice (RP-38); format: in vivo; conditions: for DAYS OF DEATH: individual animals
Description: Four studies were initiated to evaluate the response of U251 and SF-295 glioblastomas to treatment with product (Ia). In the two studies, U251 and SF-295 glioblastomas were initiated from intracranially implanted cells at a volume of 10^6 cells per mouse. The treatment schedule of the intracranially implanted U251 glioblastoma cells was iv, once daily, every sixth day for three treatments (q6d×3), beginning on day four post-implant. The treatment schedule of the intracranially implanted SF-295 glioblastoma cells was iv, once daily, every fourth day for three treatments (q4d×3), beginning on day two post-implant. For the intracranially implanted studies, the compounds were evaluated based on their ability to increase the life span of the animals. The positive control used for both of these tumor models was nitrosourea.
In these experiments, general DCTD, NCI techniques and procedures for in vivo efficacy studies were modified for special application (In Vivo Cancer Models, NIH Publication No. 84-2635, 1984). These studies were conducted in approved facilities (AAALAC Registration No. 000643, AALAS Membership No. 840723001, USDA Registration No. 64-R-001, OPPR, PHS, NIH, AWA, Assurance No. A3046-01). These facilities are ISO 9001 certified. The oversight committee was the Southern Research Institutional Animal Care and Use Committee; the protocol used was IACUC No. 96-8-50.
(§1) Product (Ia) was prepared in 5% ethanol, 5% tween 80, 90% D5W
Nitrosourea was prepared in 2% ethanol, 98% physiological saline.
(§2) Product (Ia) was administered in 0.4 ml/mouse based on a total body weight average.
(§3) Nitrosourea was administered 0.1 ml/10 g of body weight.
(§4) Any intracranially implanted animal that appeared to be moribund was euthanized for humane purposes. Since efficacy studies fall within this category of basic research, experiment termination was based on resultants that were determined to be optimal.
Six to eight week old athymic NCr-nu female mice were used for the intracranially implanted U251 trials. Six to eight week old athymic NCr-nu male mice were used for the intracranially implanted SF-295 trials.
As previously mentioned, this experiment was designed to evaluate the activity of product (Ia) against intracranially U251 and SF-295 glioblastomas in athymic MCr-nu mice. The dosages for product (Ia) were 30, 20 and 13.4 mg/kg/dose. For the two intracranially implanted experiments, cells were prepared at a concentration of 3.33×10^7 cells per ml of media and injected at a volume of 0.03 ml per mouse. The cells were injected into the cerebrum to the right of the midline with a 25 gauge, ⅜ inch, stainless steel needle. Cultured cells were used for the U251 experiment (RP-36). The treatment schedule was q6d×3, iv, beginning on day four, post-implant. A tumor brei, made from solid tumor, was used for the SF-295 experiment (RP-38). The treatment schedule was q4d×3, iv, beginning on day two, post-implant. Nitrosourea was given in each experiment for comparative purposes because of its known activity against CNS tumors. The dosages were 27, 18 and 12 mg/kg/dose and the treatment schedule was the same as the treatment schedule for product (Ia) in each experiment.

[2] = system: intracranially implanted human glioblastoma U251; test: Antitumor activity against intracranially implanted U251 glioblastoma in NCr-nu mice (RP-36); format: in vivo; conditions: for DAYS OF DEATH: individual animals
Method: The treatment schedule of the intracranially implanted U251 glioblastoma cells was iv, once daily, every sixth day for three treatments (q6d×3), beginning on day four post-implant. […] For the intracranially implanted studies, the compounds were evaluated based on their ability to increase the life span of the animals. The positive control used for both of these tumor models was nitrosourea.
The oversight committee was the Southern Research Institutional Animal Care and Use Committee; the protocol used was IACUC No. 96-8-50.
as §1, §2, §3, §4
Six to eight week old athymic NCr-nu female mice were used for the intracranially implanted U251 trials.
The cells were injected into the cerebrum to the right of the midline with a 25 gauge, ⅜ inch, stainless steel needle. Cultured cells were used for the U251 experiment (RP-36). The treatment schedule was q6d×3, iv, beginning on day four, post-implant. […] The treatment schedule was q4d×3, iv, beginning on day two, post-implant. Nitrosourea was given in each experiment for comparative purposes because of its known activity against CNS tumors.

[3] = 18.0 mg/kg/dose IV Q4D×3(2), listed as nitrosourea
[4] = 27.0 mg/kg/dose IV Q4D×3(2), listed as nitrosourea
[5] = 18.0 mg/kg/dose IV Q6D×3(4), listed as nitrosourea

For `NC(=O)NN=O` [Nitrosourea, reference compound], the “68 DAY SURV./TOTAL” value ([1]; 12.0 mg/kg/dose IV Q4D×3(2)) was 0/10, the “% ILS” value ([1]; 12.0 mg/kg/dose IV Q4D×3(2)) was “+106%” and the “MEDIAN DAY OF DEATH” value ([1]; 12.0 mg/kg/dose IV Q4D×3(2)) was 33.0 days. For the same molecule, the “DAYS OF DEATH” value ([1]; 12.0 mg/kg/dose IV Q4D×3(2)) was 33 day (5×) and 40 day and 22 day and 23 day and 26 day (2×), the “% ILS” value ([1]; 12.0 mg/kg/dose IV Q4D×3(2), listed as nitrosourea) was 106% and the “68 DAY SURV./TOTAL” value ([1]; 18.0 mg/kg/dose IV Q4D×3(2)) was 1/10. For the same molecule, the “% ILS” value ([1]; 18.0 mg/kg/dose IV Q4D×3(2)) was “+131%”, the “MEDIAN DAY OF DEATH” value ([1]; 18.0 mg/kg/dose IV Q4D×3(2)) was 37.0 days and the “DAYS OF DEATH” value ([1]; 18.0 mg/kg/dose IV Q4D×3(2)) was 40 day and 41 day and 33 day and 34 day (2×) and 35 day and 37 day (3×). The “68 DAY SURV./TOTAL” value [1, 3] was “one 68-day survivor out of ten animals”, the “% ILS” value [1, 3] was 131% and the “68 DAY SURV./TOTAL” value ([1]; 27.0 mg/kg/dose IV Q4D×3(2)) was 2/10. For the same molecule, the “% ILS” value ([1]; 27.0 mg/kg/dose IV Q4D×3(2)) was “+50%”, the “MEDIAN DAY OF DEATH” value ([1]; 27.0 mg/kg/dose IV Q4D×3(2)) was 24.0 days and the “DAYS OF DEATH” value ([1]; 27.0 mg/kg/dose IV Q4D×3(2)) was 64 day and 15 day and 16 day (2×) and 19 day and 29 day and 37 day and 56 day. The “68 DAY SURV./TOTAL” value [1, 4] was “two 68-day survivors out of ten animals”, the “% ILS” value [1, 4] was 50% and the MTD ([1]; in vivo, iv) was 27 mg/kg/dose. For the same molecule, the “122-DAY SURV./TOTAL” value ([2]; 12.0 mg/kg/dose IV Q6D×3(4)) was 0/10, the “% ILS” value ([2]; 12.0 mg/kg/dose IV Q6D×3(4)) was “+51%” and the “MEDIAN DAY OF DEATH” value ([2]; 12.0 mg/kg/dose IV Q6D×3(4)) was 51.5 days. For the same molecule, the “DAYS OF DEATH” value ([2]; 12.0 mg/kg/dose IV Q6D×3(4)) was 69 day (2×) and 80 day and 41 day and 45 day and 49 day (3×) and 54 day and 66 day, the “% ILS” value ([2]; 12.0 mg/kg/dose IV Q6D×3(4), listed as nitrosourea) was 51% and the “122-DAY SURV./TOTAL” value ([2]; 18.0 mg/kg/dose IV Q6D×3(4)) was 7/10. The “% ILS” value ([2]; 18.0 mg/kg/dose IV Q6D×3(4)) was “+205%”, the “MEDIAN DAY OF DEATH” value ([2]; 18.0 mg/kg/dose IV Q6D×3(4)) was 104.0 days and the “DAYS OF DEATH” value ([2]; 18.0 mg/kg/dose IV Q6D×3(4)) was 94 day and 104 day (2×). The “122-DAY SURV./TOTAL” value [2, 5] was “seven of ten”, the “% ILS” value [2, 5] was 205% and the “122-DAY SURV./TOTAL” value ([2]; 27.0 mg/kg/dose IV Q6D×3(4)) was 10/10. The “122-DAY SURV./TOTAL” value ([2]; 27.0 mg/kg/dose IV Q6D×3(4), listed as nitrosourea) was “ten of ten” and the MTD ([2]; iv q6d×3, U251 experiment RP-36) was 27 mg/kg/dose.
